This passage reports AC50 and EC50 results from ChEMBL document CHEMBL1201862, “PubChem BioAssay data set” (2004).

“And” between values parts separate entries of the source, which are not always exact repeats. Identical values can stand only once. The source made the active and inactive calls. Some results are limits rather than exact numbers.

The target in one assay is Cytochrome P450 2C9 (Homo sapiens, UniProt P11712).
Another assay deals with T1, Cytochrome P450 1A2 (Homo sapiens, UniProt P05177).
T1 sequence (P05177 whole entry): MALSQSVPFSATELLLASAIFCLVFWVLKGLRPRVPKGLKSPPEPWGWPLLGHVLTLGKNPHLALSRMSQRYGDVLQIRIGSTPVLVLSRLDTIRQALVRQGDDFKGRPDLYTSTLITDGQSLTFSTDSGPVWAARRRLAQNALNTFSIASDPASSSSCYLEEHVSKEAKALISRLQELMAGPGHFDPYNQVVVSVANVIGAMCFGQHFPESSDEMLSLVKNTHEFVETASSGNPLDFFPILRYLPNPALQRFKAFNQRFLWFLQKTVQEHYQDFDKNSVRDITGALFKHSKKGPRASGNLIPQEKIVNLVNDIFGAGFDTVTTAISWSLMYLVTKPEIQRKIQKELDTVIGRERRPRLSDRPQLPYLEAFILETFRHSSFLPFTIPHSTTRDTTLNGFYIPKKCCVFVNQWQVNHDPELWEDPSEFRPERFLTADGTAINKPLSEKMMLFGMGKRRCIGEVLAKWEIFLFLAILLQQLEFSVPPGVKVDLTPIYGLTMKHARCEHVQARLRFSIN

A short description of assay [1]: cytotoxicity toward NIH3T3 fibroblasts, dose response, counter-screen, cell-based, ATP luminescence, mouse fibroblasts (AID 2010).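 Note: cells exposed to compound for about 90 hours before reading.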 In kind it is functional.
Assay [2] in a line: inhibitors of intracellular T. cruzi replication, confirmation, NIH3T3 host cells, beta-gal luminescence (AID 2044).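 Note: intracellular parasites grown in NIH/3T3 mouse fibroblasts as host cells; luminescent beta-galactosidase reporter signal from transgenic T. cruzi replicating inside host cells; inhibitors lower the luminescence signal.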 In kind it is functional, cell-based.
The target in the next assay is Cytochrome P450 2D6 (Homo sapiens, UniProt P10635).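 Note: CYP2D6 member of a cytochrome P450 panel assay.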
Cytochrome P450 2D6, sequence (P10635 whole entry): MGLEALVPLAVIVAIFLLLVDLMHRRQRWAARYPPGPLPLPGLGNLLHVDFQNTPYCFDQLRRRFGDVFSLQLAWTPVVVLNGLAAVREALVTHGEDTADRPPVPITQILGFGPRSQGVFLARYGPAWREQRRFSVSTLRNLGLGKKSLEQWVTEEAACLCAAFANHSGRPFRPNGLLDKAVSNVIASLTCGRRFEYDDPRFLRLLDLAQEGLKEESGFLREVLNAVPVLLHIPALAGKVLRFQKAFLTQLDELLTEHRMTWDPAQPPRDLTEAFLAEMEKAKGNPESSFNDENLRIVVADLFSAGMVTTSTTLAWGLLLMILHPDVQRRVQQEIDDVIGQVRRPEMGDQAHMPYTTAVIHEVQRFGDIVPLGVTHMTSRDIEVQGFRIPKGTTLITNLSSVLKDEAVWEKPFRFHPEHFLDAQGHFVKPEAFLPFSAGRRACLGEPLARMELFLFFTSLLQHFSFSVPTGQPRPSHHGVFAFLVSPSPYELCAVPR

Cytochrome P450 2C9, sequence (P11712 whole entry): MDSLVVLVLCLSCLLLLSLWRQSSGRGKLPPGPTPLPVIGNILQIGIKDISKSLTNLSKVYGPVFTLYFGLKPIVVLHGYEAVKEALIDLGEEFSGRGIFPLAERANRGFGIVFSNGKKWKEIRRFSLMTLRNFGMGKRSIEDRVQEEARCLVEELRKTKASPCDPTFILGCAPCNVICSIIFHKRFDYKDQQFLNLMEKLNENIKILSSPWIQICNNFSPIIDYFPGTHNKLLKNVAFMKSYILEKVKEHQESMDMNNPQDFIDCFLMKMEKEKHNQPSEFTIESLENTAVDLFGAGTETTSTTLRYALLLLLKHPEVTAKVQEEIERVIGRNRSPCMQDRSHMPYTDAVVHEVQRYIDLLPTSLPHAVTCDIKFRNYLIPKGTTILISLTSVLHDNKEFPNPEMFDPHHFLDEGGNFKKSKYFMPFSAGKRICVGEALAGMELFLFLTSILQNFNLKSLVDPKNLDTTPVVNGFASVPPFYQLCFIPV

As a reminder, the AC50 is the midpoint of the concentration-response curve, whichever way the signal moves. In the case of `CCN(CC)CCNC(=O)c1ccc(Cl)c(S(=O)(=O)Nc2ccccc2OC)c1`, the AC50 at Cytochrome P450 2C9 is 12.6 µM (inconclusive). For the molecule `Cc1cc(C(=O)N/N=C/c2cccc(OC(=O)c3ccco3)c2)[nH]n1`, on Cytochrome P450 1A2, the half-maximal activity concentration (AC50) is 22.4 µM (inconclusive).

In the case of `CCCCC(=O)Nc1cc(OCC)c(NC(=O)c2ccccc2[N+](=O)[O-])cc1OCC`, the AC50 on Cytochrome P450 1A2 was 14.1 µM (inconclusive). In general, EC50 refers to the concentration that produces a half-maximal response. `CCN1CCN(CC(=O)N2CCCC(C(=O)c3ccc(Oc4ccccc4)cc3)C2)CC1` (stereo unspecified): the EC50 is > 30 µM (not active) in assay [1] and 0.478 µM (active) in assay [2].

`CCN(CC)CCCOC(=O)c1ccc(OC)cc1O`: the figures for the half-maximal effective concentration (EC50) in assay [1] and in assay [2] were > 60 µM (not active) and 0.743 µM (active), respectively. For `O=C(Nc1ccccc1C(=O)O)c1cc(S(=O)(=O)N2CCCCC2)c(Cl)cc1Cl` the same measures were 14 µM (active) and 3.6 µM (active). For the molecule `Cn1c(=O)c([N+](=O)[O-])c(NCCc2ccccc2)c2ccccc21`, the EC50 in assay [1] was > 60 µM (not active); in assay [2], 0.554 µM (active). In the case of `C/C(CCC(=O)OC[C@@H]1O[C@H](C#Cc2ccccc2)C=C[C@@H]1Oc1ccc(C)cc1)=N/O[C@@H](C)CN1CCCc2nc(C)c(C)cc21`, the AC50 at Cytochrome P450 2C9 is 2.51 µM (inconclusive). In the case of `CCOC(=O)NC(=O)CSc1nc2cc(OCC)ccc2[nH]1`, the half-maximal activity concentration (AC50) on Cytochrome P450 2D6 was 0.562 µM (inconclusive). `CSc1cc(C)nc(NC(C)=O)n1`: the values for the AC50 at Cytochrome P450 1A2 and at Cytochrome P450 2C9 were 1.26 µM (inconclusive) and 3.16 µM (inconclusive), respectively. In the case of `O=C1C2Sc3nc(O)sc3C(c3ccccc3)C2C(=O)N1c1ccc(Cl)cc1` (stereo unspecified), the AC50 on Cytochrome P450 2D6 is 22.4 µM (inconclusive). For `OCCC1CN(Cc2ccc3nonc3c2)CCN1Cc1ccsc1` (stereo unspecified), the EC50 was > 60 µM (not active) in assay [1] and 0.452 µM (active) in assay [2].

`COc1ccc(-c2ccc3c(n2)CCCN3C[C@H](O)CN2CCCc3nc(C)c(C)cc32)cc1`: the AC50 on Cytochrome P450 2D6 was 3.16 µM (inconclusive). In the case of `Cc1cccc(CNc2cc(-c3c(C)noc3C)ncn2)c1`, the AC50 on Cytochrome P450 2D6 is 31.6 µM (inconclusive). For the molecule `CCOC(=O)N1CCC(N2CCCC(C(=O)c3cc(F)ccc3OC)C2)CC1` (stereo unspecified), the concentration giving a half-maximal response (EC50) in assay [1] is > 60 µM (not active); in assay [2], 2.66 µM (active). As to `Cc1ccc(CNC(=O)c2nnn(-c3cccc(C)c3)c2N)cc1`, the concentration at half-maximal activity (AC50) on Cytochrome P450 2C9 and on Cytochrome P450 2D6 was 39.8 µM (inconclusive) throughout.

For `COc1ccc(C2SCC(=O)N2CC23CC4CC(CC(C4)C2)C3)cc1` (stereo unspecified), the results for the EC50 in assay [1] and in assay [2] were > 60 µM (not active) and 2.87 µM (active), respectively.

As to `CCN1CCN(c2ccc(NC(=O)C(C)C)cc2Cl)CC1`, the AC50 at Cytochrome P450 2D6 is 14.1 µM (inconclusive). Take `CCN1CCCc2cc(CN(CCN3CCOCC3)C(S)=Nc3cccc(C)c3)ccc21`: the EC50 in assay [1] is > 60 µM (not active); in assay [2], 1.62 µM (active). On to `COc1ccc(-n2c(=O)c(-c3ccc(Cl)cc3)nc3cnc(N4CCOCC4)nc32)cc1`, for which, on Cytochrome P450 2C9, the AC50 is 31.6 µM (inconclusive). Still for that read-out and setting: with `CCOC(=O)C(C)Sc1nnc(CNC(=O)c2ccc(OC)cc2)n1C1CCCCC1` (stereo unspecified) the figure was 15.8 µM (inconclusive). Consider `O=C(Nc1ccncc1)c1ccc(Cl)c(Cl)c1`, for which the 50% effective concentration (EC50) was > 30 µM (not active) in assay [1] and 0.472 µM (active) in assay [2]. As for `CCCCSC(=S)N(C)C1CCS(=O)(=O)C1` (stereo unspecified), the AC50 on Cytochrome P450 1A2 is 25.1 µM (inconclusive). As for `c1ccc(Cc2ccc(OCCCNC3CCCC3)cc2)cc1`, the EC50 in assay [1] was > 30 µM (not active); in assay [2], 0.781 µM (active). Regarding `CSc1ccc(CN(C)CCc2ccccn2)cc1`, the EC50 in assay [1] was > 30 µM (not active); in assay [2] it was 0.143 µM (active). With `CCCNC(=O)OC[C@@H]1O[C@H](CCO/N=C(\C)CCN2CCCCc3nc(C)c(C)cc32)C=C[C@@H]1Oc1ccc(OC)cc1`, the half-maximal activity concentration (AC50) on Cytochrome P450 2C9 is 3.98 µM (inconclusive); on Cytochrome P450 2D6 it was 2.51 µM (inconclusive). Consider `Cn1c(C(=O)OC(C(=O)NC2CCCCC2)c2ccncc2)cc2sccc21` (stereo unspecified), for which the EC50 in assay [1] and in assay [2] was > 30 µM (not active) in each case. For `COc1ccc2[nH]cc(CCNc3ccnc(-c4cccnc4)n3)c2c1`, the AC50 at Cytochrome P450 2C9 is 0.794 µM (inconclusive).

Take `CN(C)C(=O)c1ccc(-c2cncnc2NC2CCNCC2)cc1`: the AC50 on Cytochrome P450 1A2 is 25.1 µM (inconclusive).

Take `O=C(C[N+]1(c2ccccc2)CCOCC1)c1ccccc1`: the AC50 on Cytochrome P450 2C9 was 6.31 µM (inconclusive).

For `COCCn1c(=O)c(-c2cccc(C#N)c2)nc2cnc(N3CCOCC3)nc21`, the concentration at half-maximal activity (AC50) at Cytochrome P450 1A2 was 10 µM (inconclusive); at Cytochrome P450 2C9 it was 12.6 µM (inconclusive). With `O=C(c1cnccn1)N1CCC[C@@]2(CCN(c3ccccc3)C2)C1`, at Cytochrome P450 1A2, the half-maximal activity concentration (AC50) is 15.8 µM (inconclusive). On to `O=S(=O)(c1ccccc1)N1CCC[C@@]2(CCN(C(c3ccccc3)c3ccccc3)C2)C1`, for which the concentration at half-maximal activity (AC50) on Cytochrome P450 2C9 was 10 µM (inconclusive). As to `CC(C)(C)c1cc(/C=C(\C#N)C(N)=S)cc(C(C)(C)C)c1O` [TYRPHOSTIN AG 879], the AC50 at Cytochrome P450 2D6 is 39.8 µM (inconclusive).

Consider `COc1cc(CN2CCCC(C(=O)Nc3cccc(-n4cccn4)c3)C2)ccc1F` (stereo unspecified), for which the EC50 is > 60 µM (not active) in assay [1] and 0.194 µM (active) in assay [2].

`COC(=O)Cn1c(C(=O)N2CCCC2)cc2c1C[C@H]1CN(C(=O)c3ccccc3)[C@@](Cc3ccc(F)cc3)(C(=O)OC)[C@@H]21`: at Cytochrome P450 1A2, the AC50 was 15.8 µM (inconclusive). Take `Cc1[nH]c2ccc(F)cc2c1CCN(Cc1cccnc1)C(S)=Nc1ccccc1`: the concentration giving a half-maximal response (EC50) in assay [1] is > 60 µM (not active); in assay [2], 0.953 µM (active). On to `O=C(N/N=C/c1ccc([N+](=O)[O-])o1)C(O)c1ccccc1` (stereo unspecified), for which the values for the EC50 in assay [1] and in assay [2] were > 60 µM (not active) and 0.565 µM (active), respectively. Regarding `CC(=O)Nc1ccc(Cc2ccc3nc(O)cc(C)c3c2)cc1`, the concentration at half-maximal activity (AC50) on Cytochrome P450 2C9 was 6.31 µM (inconclusive). Consider `CC(Oc1ccc(-c2ccccc2)cc1)C(=O)O` (stereo unspecified), for which the AC50 on Cytochrome P450 1A2 is 25.1 µM (inconclusive); on Cytochrome P450 2C9 it was 39.8 µM (inconclusive). `CC(C)NC[C@@H](O)COc1ccc(CCOCC2CC2)cc1`: the AC50 at Cytochrome P450 1A2 is 15.8 µM (inconclusive) and 12.6 µM (inconclusive). As for `COc1cccc(-c2cncnc2NCc2cccs2)c1`, the AC50 at Cytochrome P450 2D6 is 20 µM (inconclusive). For `COc1ccccc1CNc1ncnc2ccc(-c3ccc4c(c3)OCO4)cc12`, the AC50 at Cytochrome P450 2C9 is 0.398 µM (inconclusive). With `Cc1nn(-c2ccc([N+](=O)[O-])cc2)c2c1C(c1cccc(Br)c1)N1C(=N2)C(=O)Nc2ccccc21` (stereo unspecified), the EC50 in assay [1] is > 60 µM (not active); in assay [2], 2.13 µM (active). As for `COc1cc(O)oc1/C=N/c1ccc(C(F)(F)F)cc1`, the AC50 on Cytochrome P450 2C9 was 17.8 µM (inconclusive); at Cytochrome P450 2D6, 15.8 µM (inconclusive).

Regarding `Cc1ccc(S(=O)(=O)c2nc(S(=O)(=O)c3ccc(C)cc3)c(NCc3ccco3)s2)cc1`, the concentration at half-maximal activity (AC50) on Cytochrome P450 2C9 is 5.62 µM (inconclusive). For the molecule `Clc1ccc2c(N3CCC(CCC4CCN(c5ncnc6cc(Cl)ccc56)CC4)CC3)ncnc2c1`, the AC50 on Cytochrome P450 1A2 is 3.16 µM (inconclusive). Regarding `Clc1ccc2[nH]cc(-c3nnnn3-c3ccc4ccccc4c3)c2c1`, the concentration for a half-maximal effect (EC50) in assay [1] is > 60 µM (not active); in assay [2], 1.97 µM (active).
